Source: ChEMBL document CHEMBL3400128, “Design, synthesis and biological evaluation of functionalized phthalimides: a new class of antimalarials and inhibitors of falcipain-2, a major hemoglobinase of malaria parasite” (Bioorg Med Chem, 2015)
Several values for one entry are separate records, joined by “and”; a condition that tells them apart may be missing. Equal entries are not always repeated. Activity calls are given as the source filed them. The calls are words filed in the database; no cut-off is given here.

Columns and labels:
Plasmodium falciparum [1] = assay: Antimalarial activity against chloroquine-sensitive Plasmodium falciparum 3D7 infected in human erythrocyte assessed as parasite viability after 48 hrs by [3H]hypoxanthine incorporation based liquid scintillation counting analysis; type: functional, organism-based
[2] = biological target: T1, Falcipain 2 (Plasmodium falciparum) (UniProt Q9N6S8); assay: Inhibition of Plasmodium falciparum Falcipain 2 using Z-Leu-Arg-AMC substrate assessed as fluorogenic substrate hydrolysis
T1 sequence (whole entry): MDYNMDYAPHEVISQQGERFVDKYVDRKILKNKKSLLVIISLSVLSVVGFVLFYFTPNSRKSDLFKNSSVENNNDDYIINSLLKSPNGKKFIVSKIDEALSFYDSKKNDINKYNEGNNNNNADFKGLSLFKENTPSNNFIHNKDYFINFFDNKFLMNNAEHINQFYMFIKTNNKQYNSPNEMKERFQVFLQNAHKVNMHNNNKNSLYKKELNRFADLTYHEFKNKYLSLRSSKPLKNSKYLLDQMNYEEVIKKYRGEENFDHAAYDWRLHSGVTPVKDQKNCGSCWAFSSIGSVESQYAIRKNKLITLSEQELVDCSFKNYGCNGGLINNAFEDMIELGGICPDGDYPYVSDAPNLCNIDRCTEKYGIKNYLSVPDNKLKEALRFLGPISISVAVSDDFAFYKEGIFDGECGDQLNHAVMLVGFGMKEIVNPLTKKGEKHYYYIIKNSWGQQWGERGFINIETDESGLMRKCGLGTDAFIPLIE

[3] = biological target: T1, Falcipain 2 (Plasmodium falciparum); assay: Inhibition of Plasmodium falciparum Falcipain 2 at 5 nM by hemoglobin hydrolysis assay
[4] = biological target: T1, Falcipain 2 (Plasmodium falciparum); assay: Inhibition of Plasmodium falciparum Falcipain 2 at 500 nM by hemoglobin hydrolysis assay
Plasmodium falciparum [5] = assay: Antimicrobial activity against chloroquine-sensitive Plasmodium falciparum 3D7 infected in human erythrocyte assessed as parasite viability at 6.25 to 25 ng/ml after 42 hrs by [3H]hypoxanthine incorporation based liquid scintillation counting analysis; type: functional, organism-based
Plasmodium falciparum [6] = assay: Antimalarial activity against chloroquine-sensitive Plasmodium falciparum 3D7 infected in human erythrocyte assessed as parasite viability after 60 hrs by [3H]hypoxanthine incorporation based liquid scintillation counting analysis; type: functional, organism-based
Plasmodium falciparum [7] = assay: Antimalarial activity against chloroquine-sensitive Plasmodium falciparum 3D7 infected in human erythrocyte assessed as parasite viability after 90 hrs by [3H]hypoxanthine incorporation based liquid scintillation counting analysis; type: functional, organism-based
Plasmodium falciparum [8] = assay: Antimicrobial activity against blood stage chloroquine-sensitive Plasmodium falciparum 3D7 infected in human erythrocyte assessed as abnormal morphologies at 55.28 uM after 6 hrs by Giemsa staining based light microscopy; type: functional, organism-based
Plasmodium falciparum [9] = assay: Antimicrobial activity against blood stage chloroquine-sensitive Plasmodium falciparum 3D7 infected in human erythrocyte assessed as abnormal morphologies at 27.64 uM after 6 hrs by Giemsa staining based light microscopy; type: functional, organism-based
Plasmodium falciparum [10] = assay: Antimicrobial activity against blood stage chloroquine-sensitive Plasmodium falciparum 3D7 infected in human erythrocyte assessed as inhibition of invasion event of merozoites after 6 hrs by Giemsa staining based light microscopy; type: functional, organism-based
Plasmodium falciparum [11] = assay: Antimicrobial activity against chloroquine-resistant Plasmodium falciparum 7G8 infected in human erythrocyte assessed as parasite viability after 48 hrs by [3H]hypoxanthine incorporation based liquid scintillation counting analysis; type: functional
Plasmodium falciparum [12] = assay: Antimicrobial activity against chloroquine-sensitive Plasmodium falciparum 3D7 infected in human erythrocyte assessed as parasite viability after 42 hrs by [3H]hypoxanthine incorporation based liquid scintillation counting analysis in presence of 25 ng/ml; type: functional, organism-based
Plasmodium falciparum [13] = assay: Antimicrobial activity against chloroquine-sensitive Plasmodium falciparum 3D7 infected in human erythrocyte assessed as parasite viability after 42 hrs by [3H]hypoxanthine incorporation based liquid scintillation counting analysis in presence of 12.5 ng/ml; type: functional, organism-based
Plasmodium falciparum [14] = assay: Antimicrobial activity against chloroquine-sensitive Plasmodium falciparum 3D7 infected in human erythrocyte assessed as parasite viability after 42 hrs by [3H]hypoxanthine incorporation based liquid scintillation counting analysis in presence of 6.25 ng/ml; type: functional, organism-based
Plasmodium falciparum [15] = assay: Antimicrobial activity against ring stage trophozoite chloroquine-sensitive Plasmodium falciparum 3D7 infected in human erythrocyte assessed as abnormal morphologies at 55.28 uM after 16 hrs by Giemsa staining based light microscopy; type: functional, organism-based
Plasmodium falciparum [16] = assay: Antimicrobial activity against ring stage trophozoite chloroquine-sensitive Plasmodium falciparum 3D7 infected in human erythrocyte assessed as abnormal morphologies at 27.64 uM after 16 hrs by Giemsa staining based light microscopy; type: functional, organism-based
[17] = Toxicity in human erythrocytes assessed as hemolytic activity up to 50 ug/ml after 42 hrs by spectrophotometric analysis; type: cell-based; details: erythrocyte
Plasmodium falciparum [18] = assay: Antimicrobial activity against blood stage chloroquine-sensitive Plasmodium falciparum 3D7 infected in human erythrocyte assessed as abnormal morphologies at 43.68 uM after 6 hrs by Giemsa staining based light microscopy; type: functional, organism-based
Plasmodium falciparum [19] = assay: Antimicrobial activity against blood stage chloroquine-sensitive Plasmodium falciparum 3D7 infected in human erythrocyte assessed as abnormal morphologies at 21.8 uM after 6 hrs by Giemsa staining based light microscopy; type: functional, organism-based
Plasmodium falciparum [20] = assay: Antimicrobial activity against ring stage trophozoite chloroquine-sensitive Plasmodium falciparum 3D7 infected in human erythrocyte assessed as abnormal morphologies at 43.68 uM after 16 hrs by Giemsa staining based light microscopy; type: functional, organism-based
Plasmodium falciparum [21] = assay: Antimicrobial activity against ring stage trophozoite chloroquine-sensitive Plasmodium falciparum 3D7 infected in human erythrocyte assessed as abnormal morphologies at 21.8 uM after 16 hrs by Giemsa staining based light microscopy; type: functional, organism-based

CC(C)C[C@@H](C(=O)N1CCN(C(=O)[C@H](CC(C)C)N2C(=O)c3ccccc3C2=O)CC1)N1C(=O)c2ccccc2C1=O
IC50 (Plasmodium falciparum [1]): 61 µg/mL and 203 µM

O=C([C@H](Cc1ccccc1)N1C(=O)c2ccccc2C1=O)N1CCOCC1
IC50 (Plasmodium falciparum [1]): 18 µg/mL and 49.4 µM | inhibition [2]: Active | inhibition [3]: Active | inhibition [4]: Active

CC[C@@H](C)[C@@H](C(=O)N1CCOCC1)N1C(=O)c2ccccc2C1=O
IC50 (Plasmodium falciparum [1]): 20 µg/mL and 60.6 µM

CC(C)[C@@H](C(=O)N1CCOCC1)N1C(=O)c2ccccc2C1=O
IC50 (Plasmodium falciparum [1]): 65 µg/mL and 206 µM

CC(C)C[C@@H](C(=O)N1CCOCC1)N1C(=O)c2ccccc2C1=O
IC50 (Plasmodium falciparum [1]): 46 µg/mL and 139 µM

CC[C@H](C)[C@@H](C(=O)N1CCC(Cc2ccccc2)CC1)N1C(=O)c2ccccc2C1=O
IC50 (Plasmodium falciparum [1]): 22.5 µg/mL and 53.8 µM

CC(C)[C@@H](C(=O)N1CCC(Cc2ccccc2)CC1)N1C(=O)c2ccccc2C1=O
IC50 (Plasmodium falciparum [1]): 19.5 µg/mL and 48.2 µM

C[C@@H]1CC[C@H]2[C@@H](C)C(=O)O[C@@H]3O[C@@]4(C)CC[C@@H]1[C@]32OO4 [ARTEMISININ]
IC50 (Plasmodium falciparum [1]): 0.045 µg/mL and 159 nM | inhibition (Plasmodium falciparum [5]): inactive

CC(C)C[C@@H](C(=O)N1CCC(Cc2ccccc2)CC1)N1C(=O)c2ccccc2C1=O
IC50 (Plasmodium falciparum [1]): 18.5 µg/mL and 44.2 µM

CC(C)[C@@H](C(=O)N1CCN(C(=O)[C@H](C(C)C)N2C(=O)c3ccccc3C2=O)CC1)N1C(=O)c2ccccc2C1=O
IC50 (Plasmodium falciparum [1]): 9.2 µg/mL and 16.9 µM

O=C([C@H](Cc1ccccc1)N1C(=O)c2ccccc2C1=O)N1CCN(C(=O)[C@H](Cc2ccccc2)N2C(=O)c3ccccc3C2=O)CC1
IC50 (Plasmodium falciparum [1]): 33.8 µg/mL and 52.7 µM | inhibition [2]: Active

CC[C@@H](C)[C@@H](C(=O)N1CCN(C(=O)[C@H]([C@H](C)CC)N2C(=O)c3ccccc3C2=O)CC1)N1C(=O)c2ccccc2C1=O
IC50 (Plasmodium falciparum [1]): 3.42 µg/mL and 5.97 µM | IC50 (Plasmodium falciparum [6]): 2000 nM | IC50 (Plasmodium falciparum [7]): 1100 nM | Activity (Plasmodium falciparum [8]): Active | Activity (Plasmodium falciparum [9]): Active | inhibition (Plasmodium falciparum [10]): Dose-dependent effect | IC50 (Plasmodium falciparum [11]): 7210 nM | IC50 (Plasmodium falciparum [12]): 1390 nM | IC50 (Plasmodium falciparum [13]): 1920 nM | IC50 (Plasmodium falciparum [14]): 2440 nM | Activity (Plasmodium falciparum [15]): Active | Activity (Plasmodium falciparum [16]): Active | Activity [17]: Non-toxic

O=C([C@H](Cc1ccccc1)N1C(=O)c2ccccc2C1=O)N1CCCC1
IC50 (Plasmodium falciparum [1]): 31.5 µg/mL and 87.6 µM | inhibition [2]: Active | inhibition [3]: Active | inhibition [4]: Active

CC(C)C[C@@H](C(=O)N1CCCCC1)N1C(=O)c2ccccc2C1=O
IC50 (Plasmodium falciparum [1]): 71.5 µg/mL and 218 µM

CC[C@@H](C)[C@@H](C(=O)N1CCCCC1)N1C(=O)c2ccccc2C1=O
IC50 (Plasmodium falciparum [1]): 35 µg/mL and 107 µM

O=C([C@H](Cc1ccccc1)N1C(=O)c2ccccc2C1=O)N1CCC(Cc2ccccc2)CC1
IC50 (Plasmodium falciparum [1]): 5.5 µg/mL and 12.2 µM | IC50 (Plasmodium falciparum [6]): 5000 nM | IC50 (Plasmodium falciparum [7]): 3800 nM | Activity (Plasmodium falciparum [18]): Active | Activity (Plasmodium falciparum [19]): Active | inhibition (Plasmodium falciparum [10]): Dose-dependent effect | IC50 (Plasmodium falciparum [11]): 13300 nM | Activity (Plasmodium falciparum [20]): Active | Activity (Plasmodium falciparum [21]): Active | Activity [17]: Non-toxic

CC(C)[C@@H](C(=O)N1CCCC1)N1C(=O)c2ccccc2C1=O
IC50 (Plasmodium falciparum [1]): 42.5 µg/mL and 142 µM

O=C([C@H](Cc1ccccc1)N1C(=O)c2ccccc2C1=O)N1CCCCC1
IC50 (Plasmodium falciparum [1]): 13 µg/mL and 36 µM

CC(C)C[C@@H](C(=O)N1CCCC1)N1C(=O)c2ccccc2C1=O
IC50 (Plasmodium falciparum [1]): 74.2 µg/mL and 236 µM

CC(C)[C@@H](C(=O)N1CCCCC1)N1C(=O)c2ccccc2C1=O
IC50 (Plasmodium falciparum [1]): 41 µg/mL and 130 µM

CC[C@@H](C)[C@@H](C(=O)N1CCCC1)N1C(=O)c2ccccc2C1=O
IC50 (Plasmodium falciparum [1]): 46 µg/mL and 146 µM
